This is an account of results in patent US20060189682A1, “Water soluble prodrugs of COX-2 inhibitors” (priority 2005, published 2006).

As usually defined, the solubility is the dissolved amount per volume that the medium holds.

Data set [1] in a line: Plasma levels of pro-drug and desired COX-2 inhibitor after i.v. dosing in Sprague-Dawley rats. It counts as in vivo. Conditions: for Pharmacokinetic characteristics / In vivo conversion to parent drug in plasma / Levels of pro-drug in vivo: 2 mg/kg i.v.; for Pharmacokinetic characteristics / concentration at 30 min / In vivo conversion to parent drug in plasma: rat; for concentration at 30 min: iv, plasma, 2 mg/kg i.v. dose of pro-drug, Sprague-Dawley rats, value @ 30 min, read-out: Levels of Pro-Drug @ 0.5 hr; for In vivo conversion to parent drug in plasma: plasma at 30 min; for Levels of pro-drug in vivo: rat model. As for the experimental part: (§1) The physiochemical properties of Examples 1-6 and their ability to behave as pro-drugs and release in vivo the parent drug (the desired COX-2 inhibitor 5(S)-ethyl-3-isopropoxy-4-(4-methanesulfonylphenyl)-5-methyl-5H-furan-2-one) were examined. […] To ascertain the rates of conversion of the pro-drugs in vivo, the compounds were dosed as a saline solution of the salt form (except for 1, which was dosed in a PEG-400 solution) in Sprague-Dawley rats at 2 mg/kg intravenously. Plasma levels were measured for levels of the respective pro-drug and the desired COX-2 inhibitor at 5, 15, 30, and 60 min time points. The plasma levels measured at 30 minutes are given below (Table 1).

Data set [2] is described as follows: Solubility in deionized water @ 25° C. It counts as physicochemical. As for the experimental part: as §1
Data set [3] is described as follows: Stability of 4 mg/mL solution in water, judged @ 24 hr by LC-MS/HPLC. As to conditions: after 24 hr in water, HPLC analysis. It counts as physicochemical. How it is done: as §1
The conditions of data set [4]: background statement; cited from earlier work.
In another data set the test system is infarct volume. Conditions: MCAO stroke model; cited from earlier work.
Where [5] appears, read: saline solution of the salt form.
[6] abbreviates: deionized water, 25 °C, water, read-out: Solubility.

Where two headings read alike, the source gives them in different places.

Consider `CC[C@]1(C)OC2(OCC(COP(=O)([O-])OCC[N+](C)(C)C)O2)C(OC(C)C)=C1c1ccc(S(C)(=O)=O)cc1` (stereo in doubt) [Example 3, 2-{[({(2R,7S)-7-ethyl-9-isopropoxy-7-methyl-8-[4-(methylsulfonyl)phenyl]-1,4,6-trioxaspiro[4.4]non-8-en-2-yl}methoxy)(hydroxy)phosphoryl]oxy}-N,N,N-trimethylethanaminium], for which the “Pharmacokinetic characteristics” value in data set [1] is given as “superior pharmacokinetic characteristics”. The concentration at 30 min in data set [1] (setting [5]) was 200 nM. Also, the values for the solubility in data set [2] and in data set [2] (setting [6]) were more than 20000 µg/mL and more than 10000 µg/mL, respectively.
Take `CC[C@]1(C)OC2(OCC(CO)O2)C(OC(C)C)=C1c1ccc(S(C)(=O)=O)cc1` (stereo partly drawn) [Example 1, {(7S)-7-ethyl-9-isopropoxy-7-methyl-8-[4-(methylsulfonyl)phenyl]-1,4,6-trioxaspiro[4.4]non-8-en-2-yl}methanol]: in data set [1], the “Pharmacokinetic characteristics” value was “superior pharmacokinetic characteristics” and the “In vivo conversion to parent drug in plasma” value (from here on “In vivo conversion”) is “converted to yield appreciable levels of the parent drug”. In data set [1] (dosed in PEG-400 solution), the concentration at 30 min was 1400 nM. In data set [2], the solubility was less than 1000 µg/mL. For the same compound, in data set [2] (setting [6]), the solubility was less than 1000 µg/mL.
In the case of `CC[C@]1(C)OC2(OCC(COC(=O)CCC(=O)[O-])O2)C(OC(C)C)=C1c1ccc(S(C)(=O)=O)cc1.[Na+]` (stereo partly drawn) [Example 2, Sodium 4-({(7S)-7-ethyl-9-isopropoxy-7-methyl-8-[4-(methylsulfonyl)phenyl]-1,4,6-trioxaspiro[4.4]non-8-en-2-yl}methoxy)-4-oxobutanoate], in data set [1], the “Pharmacokinetic characteristics” value is recorded as “superior pharmacokinetic characteristics” and the “In vivo conversion” value is “converted to yield appreciable levels of the parent drug”. The concentration at 30 min in data set [1] (setting [5]) is less than 100 nM. Also, the solubility in data set [2] (setting [6]) turned out to be 2000 µg/mL.
For the compound `CC[C@]1(C)O/C(=N\[C@@H](CO)C(=O)[O-])C(OC(C)C)=C1c1ccc(S(C)(=O)=O)cc1.[K+]` [Example 4, N-[(5S)-5-ethyl-3-isopropoxy-5-methyl-4-[4-(methylsulfonyl)phenyl]furan-2(5H)-ylidene]-L-serine potassium salt], the “Levels of pro-drug in vivo” value in data set [1] is “dropped rapidly”. Further, the “In vivo conversion” value in data set [1] is reported as “failed to give appreciable amounts of the parent drug”. For the same compound, the values for the solubility in data set [2] (setting [6]) and in data set [2] (potassium salt) were more than 10000 µg/mL and more than 20000 µg/mL, respectively.
Take `CC[C@@]1(C)OC2(OC[C@@H]([C@H]3OC(=O)C(O)=C3[O-])O2)C(OC(C)C)=C1c1ccc(S(C)(=O)=O)cc1.[Na+]` (stereo partly drawn) [Example 5]: the “Pharmacokinetic characteristics” value in data set [1] is recorded as “superior pharmacokinetic characteristics”. In addition, the “Stability in solution” value in data set [3] is “rapid decomposition”. For the same compound, the solubility in data set [2] (setting [6]) is more than 10000 µg/mL; in data set [2] (monosodium salt), more than 20000 µg/mL.
On to `CC[C@]1(C)O/C(=N\OCC(=O)[O-])C(OC(C)C)=C1c1ccc(S(C)(=O)=O)cc1.[Na+]` [Example 6, [[[(5S)-5-ethyl-5-methyl-3-(1-methylethoxy)-4-[4-(methylsulfonyl)phenyl]-2(5H)-furanylidene]amino]oxy]acetic acid sodium salt], for which the “Levels of pro-drug in vivo” value in data set [1] was “dropped rapidly”. In data set [1], the “In vivo conversion” value is “failed to give appreciable amounts of the parent drug”. In addition, the results for the solubility in data set [2] (setting [6]) and in data set [2] (sodium salt) were more than 10000 µg/mL and 10000 µg/mL, respectively.
`CC[C@]1(C)OC(=O)C(OC(C)C)=C1c1ccc(S(C)(=O)=O)cc1` [parent drug, 5(S)-ethyl-3-isopropoxy-4-(4-methanesulfonylphenyl)-5-methyl-5H-furan-2-one]: the “Water solubility” value in data set [4] is “poor water solubility”. Besides, the “Infarct volume” value in the data set on infarct volume is on record as “reduction in infarct volume”.
